Read-outs that look alike come from different tables or passages of the source.
Legend:
[1] = test system: FLR3-1 HCV subgenomic replicon cells (genotype 1b; Con-1); assay: Luciferase assay of HCV replication in HCV subgenomic replicon cells; format: cell-based; conditions: Hepatitis C virus; for IC50: 72 h, FLR3-1 cells, read-out: IC50 of myriocin
Experimental: First, myriocin (Sigma, St. Louis, MO, USA) was added at a final concentration of 0.2, 1.0, 3.9, 15.6, or 62.5 nM to a growth medium for FLR3-1 HCV subgenomic replicon cells (genotype 1b; Con-1; Sakamoto, H. et al., Nat Chem Biol, 1, 333-337 (2005)). After 72 hours of incubation, the present inventors carried out luciferase assay using the Bright-Glo luciferase assay kit (Promega, Madison, WI, USA).
FLR3-1 cells were incubated with 1 or 2.5 µM of a sphingolipid intermediate (dihydrosphingosine, sphingosine, or sphingosine-1-phosphate), and then serial dilutions of myriocin were added thereto. After 72 hours, IC50 in each combination was determined by luciferase assay.

[2] = Serum human albumin level (Alb-II kit) in HCV 1b infected chimeric mice; format: in vivo, chimeric mice having humanized liver; conditions: serum of HCV 1b infected chimeric mice
Experimental: The present inventors monitored the human albumin (h-Alb) level at the same time. The human albumin level was determined using 2 µl of serum and the Alb-II kit (Eiken Chemical, Tokyo, Japan) according to the manufacturer's instructions.

NS3 protein = assay: Immunoblotting and immunofluorescent staining of NS3 protein in HCV replicon cells; format: cell-based
HCV genotype 1b (HCR6) = assay: Serum HCV RNA (real-time PCR) in chimeric mice with humanized liver infected with HCV genotype 1b, myriocin and/or PEG-IFN; format: in vivo, chimeric mice having humanized liver; conditions: after eight days, myriocin 1 mg/kg (reduced to 0.5 mg/kg on weight loss)
Experimental: The inhibitory activity of myriocin was examined using chimeric mice having humanized liver infected with HCR6 (genotype 1b). The chimeric mice used were purchased from PhoenixBio Co. (Hiroshima, Japan).
Specifically, according to Table 2, myriocin and/or PEG-IFN (Chugai, Tokyo, Japan) were administered intraperitoneally or subcutaneously into mice infected with HCV genotype 1b (HCR6; accession number AY045702) and blood was collected. Table 2: Administration schedule for chimeric mice infected with HCV genotype 1b
In Table 2, the symbols B, I, and M indicate that each step was conducted as needed and the administration of agents was started on day 0. PEG-IFN was injected at a dose of 30 µg/kg. The dose of myriocin injection was varied depending on the mouse weight. The administration was started at 1 mg/kg (M). When the weight was reduced by 10%, the dose was reduced to 0.5 mg/kg (M1/2). The administration was discontinued when the weight was reduced by 20%.
Next, total RNAs were purified using AGPC method from 1 µl of sera or hepatic tissues collected from the chimeric mice. HCV RNA was quantified by real-time PCR using a method known to those skilled in the art (Takeuchi, T. et al., Gastroenterology, 116, 636-642 (1999)).

HCV genotype, 1a (HCG9) = assay: HCV RNA and core protein in serum and liver of chimeric mice infected with HCV genotype 1a; format: in vivo; conditions: 2 mg/kg of myriocin every day for six days
Experimental: The serum RNA level in these mice reached about 1x10^8 copies/ml, 10 times higher than that of HCV 1b (HCR6) (Fig. 5A). Therefore, it was assumed that the HCV core protein in the hepatocytes could be readily detected by immunofluorescent staining. The present inventors administered 2 mg/kg of myriocin to 1a-4 chimeric mice every day for six days and then excised the livers. For comparison, livers were also excised from non-treated mice (1a-1), non-infected mice (1a-2), and PEG-IFN-treated mice (1a-3) in the same way. The livers were homogenized in RIPA, and 100 µg of the total protein was used for detection of the core protein using the Ortho HCV core protein ELISA kit (Eiken Chemical).
Next, the liver tissues of the chimeric mice were examined by immunofluorescent staining. Liver sections from the 1a-1 and 1a-4 mice were probed using a biotinylated anti-HCV core protein monoclonal antibody and anti-human hepatocyte monoclonal antibody (Dako, Glostrup, Denmark) as primary antibodies. Then, the sections were probed with streptavidin-Alexa 488 (Invitrogen) and anti-mouse IgG-Alexa-546 (Invitrogen). Furthermore, nuclei were stained with DAPI.
The effect of myriocin treatment on the expression of HCV RNA and core protein in the livers of the chimeric mice was confirmed by the method described above.

FLR3-1 cells = assay: Cell viability (Tetra Color One kit); format: cell-based; conditions: 72 hours of incubation, 0.2 to 62.5 nM
Experimental: Furthermore, myriocin was added to FLR3-1 cells, and after 72 hours of incubation, the cell viability was determined using Tetra Color One kit (Seikagakukogyo, Tokyo, Japan) according to the manufacturer's instructions.

[3] = test system: de novo sphingolipid biosynthesis in FLR3-1 cells; assay: De novo sphingolipid biosynthesis monitored by [14C]-serine incorporation and TLC; format: cell-based; conditions: TLC
Experimental: To investigate the correlation between sphingolipid metabolites and HCV replication, the present inventors monitored the de novo sphingolipid biosynthesis in FLR3-1 cells in the presence of myriocin.
First, FLR3-1 cells were incubated with [^14C]-serine (0.5 µCi/ml) in Opti-MEM (Invitrogen) for two hours. After the cells were lysed in 0.1% SDS, total lipid was extracted using chloroform/methanol (1:2 (v/v)). The extract was spotted onto a Silica gel 60 thin layer chromatography (TLC) plate (Merck, Darmstadt, Germany), and chromatographed using methyl acetate/ 1-propanol/ chloroform/methanol/ 0.25% KCl (25:25:25:10:9 (v/v)). Radioactive spots were detected using BAS 2000 (Fujifilm, Kanagawa, Japan).

## CCCCCCC(=O)CCCCCC/C=C/C[C@@H](O)[C@H](O)[C@@](N)(CO)C(=O)O [myriocin, Myriocin]
[1]; Agent added: Dihydrosphingosine 1.0 µM
  IC50: 77.7 nM
[1]; Agent added: Dihydrosphingosine 2.5 µM
  IC50: > 1000 nM
[1]; Agent added: Sphingosine 1.0 µM
  IC50: 22.4 nM
[1]; Agent added: Sphingosine 2.5 µM
  IC50: > 1000 nM
[1]; Agent added: Sphingosine-1-phosphate 1.0 µM
  IC50: 14.7 nM
[1]; Agent added: Sphingosine-1-phosphate 2.5 µM
  IC50: > 1000 nM
[1]; No agent added, luciferase assay
  IC50: ~5.8 nM
[1]; in the presence of 62.5 nM myriocin, 72 hours, read-out: maximum inhibitory rate (luciferase activity)
  inhibition at 0.0625 µM: ~80%
[2]
  human albumin level: without affecting h-Alb
NS3 protein
  NS3 protein: reduced
HCV genotype 1b (HCR6)
  reduction of serum level of HCV RNA: 10 to 100 times
HCV genotype 1b (HCR6); before treatment 3 x 10^6 to 1 x 10^7 copies/ml
  serum level of HCV RNA: 6 x 10^5 to 1 x 10^4 copies/ml
HCV genotype, 1a (HCG9); 1a-4 mice
  HCV 1a RNA and core protein in the liver: also reduced
HCV genotype, 1a (HCG9); 1a-4 mice, non-treated about 1x10^8 copies/ml
  serum level of HCV RNA: 1 x 10^5 copies/ml
HCV genotype, 1a (HCG9); liver sections of 1a-4 mice
  core protein in human hepatocytes (immunofluorescent staining): disappeared
FLR3-1 cells
  cell viability: without affecting the cell viability
[3]
  production of both ceramide and sphingomyelin: inhibited in a dose dependent manner
  production of phosphatidylethanolamine and phosphatidylserine: not affected
